Test results as given in patent publication US4537879A, “A47934 Antibiotic and process for production thereof” (Eli Lilly and Company, priority 1984, dated 1985).
Converted amounts (≈) assume the structure as drawn. Like-named read-outs stand apart in the source and are kept apart here.

Assays:
[1] = system: Staphylococcus epidermidis; test: MIC against a variety of bacteria, standard agar-dilution; assay type: cell-based
[2] = system: Clostridium perfringens 81; assay type: cell-based; settings: strain 81; agar dilution
[3] = Test 3: growth promotion in weanling pigs; assay type: in vivo; settings: 28 days
Procedure: Antibiotic A47934 was tested at levels of 10 and 50 ppm. in the diet of pigs initially weighing an average of about 23 pounds, compared with […]) administered in the diet at 110 ppm. The experiment was conducted in an environmentally controlled nursery facility with wire mesh floors in the pens. There were four replicates per treatment and four pigs per replicate for the 28-day experiment. There were six replicates of four pigs per replicate in the control group, which group received the unmedicated diet. The pigs were fed ad libitum on an 18 percent protein corn-soy ration having the following composition: At the end of the trial, the average weight of the individual pig had increased to 53 pounds.

[4] = Precipitation from broth filtrate on acidification; assay type: physicochemical; settings: broth filtrate acidified
Excerpt: Antibiotic A47934 can also be removed from the broth filtrate by adjusting such filtrate to about pH 3 with acid, for complete precipitation, followed by filtration. A47934 starts to precipitate at about pH 6.5 and is complete at about pH 3. Inorganic acids such as hydrochloric, sulfuric, and phosphoric, and organic acids such as acetic acid and formic acid are suitable for acidification. The crude A47934 thus obtained can be further purified by chromatographic procedures.

S. aureus (3055) = test: In vivo activity against experimental bacterial infection; settings: mice, two doses subcutaneously; S. aureus (3055) infection
[5] = system: Bacteroides melaninogenicus; test: MIC against anaerobic bacteria, agar dilution; assay type: cell-based
[6] = system: Eubacterium aerofaciens 1235; test: MIC against anaerobic bacteria, agar dilution; assay type: cell-based; settings: strain 1235
[7] = system: Bacteroides corrodens 1874; test: MIC against anaerobic bacteria, agar dilution; assay type: cell-based; settings: strain 1874
Staphylococcus aureus = test: MIC against a variety of bacteria, standard agar-dilution; assay type: cell-based
Salmonella typhi = test: as above; assay type: cell-based
[8] = system: Bacteroides thetaiotaomicron 1438; test: MIC against anaerobic bacteria, agar dilution; assay type: cell-based; settings: strain 1438
[9] = system: Peptostreptococcus anaerobius 1428; test: MIC against anaerobic bacteria, agar dilution; assay type: cell-based; settings: strain 1428
Peptococcus prevoti 1281 = settings: strain 1281; agar dilution
Streptococcus Group D = test: MIC against a variety of bacteria, standard agar-dilution; assay type: cell-based
Bacteroides fragilis = test: MIC against anaerobic bacteria, agar dilution; assay type: cell-based
[10] = Test 2: growth promotion in chickens; assay type: in vivo, 8-day old Penobscot broilers; settings: chicks, 20 g./T. of feed, 21 days
Excerpt: Chicks, 8-day old Penobscot broilers, were used in this test. A total of 560 chicks were used divided into groups of 7 birds each. […] The broiler starter ration has the following composition: Feed and water were available to all groups ad libitum for 21 days. Two time replicates were run.

[11] = system: Streptococcus pyogenes C203; test: MIC against a variety of bacteria, standard agar-dilution; assay type: cell-based; settings: strain C203
[12] = system: Peptococcus asaccharolyticus 1302; test: MIC against anaerobic bacteria, agar dilution; assay type: cell-based; settings: strain 1302
S. pyogenes C203 = test: In vivo activity against experimental bacterial infection; settings: mice, two doses subcutaneously
[13] = system: Clostridium difficile strains; test: MIC against Clostridium difficile strains, agar-dilution; assay type: cell-based
Excerpt: Antibiotic A47934 is also active against a number of strains of Clostridium difficile, as determined by the agar-dilution method.

[14] = system: Fusobacterium necrophorum 6054A; test: MIC against anaerobic bacteria, agar dilution; assay type: cell-based; settings: strain 6054A
[15] = system: Streptococcus pneumoniae Park 1; test: MIC against a variety of bacteria, standard agar-dilution; assay type: cell-based; settings: strain Park 1
[16] = system: Peptostreptococcus intermedius 1264; test: MIC against anaerobic bacteria, agar dilution; assay type: cell-based; settings: strain 1264
Haemophilus influenza = test: MIC against a variety of bacteria, standard agar-dilution; assay type: cell-based
[17] = system: Fusobacterium symbiosum 1470; test: MIC against anaerobic bacteria, agar dilution; assay type: cell-based; settings: strain 1470
[18] = system: Clostridium septicum 1128; test: MIC against anaerobic bacteria, agar dilution; assay type: cell-based; settings: strain 1128
[19] = system: Clostridium difficile 2994; test: MIC against anaerobic bacteria, agar dilution; assay type: cell-based; settings: strain 2994
S. pneumoniae (Park I) = test: In vivo activity against experimental bacterial infection; settings: mice, two doses subcutaneously
[20] = system: Propionibacterium acnes 79; test: MIC against anaerobic bacteria, agar dilution; assay type: cell-based; settings: strain 79
[21] = system: volatile fatty acids produced in the rumen; test: Test 1: in vitro modification of the ratio of volatile fatty acids produced in the rumen
Excerpt: The effectiveness of antibiotic A47934 in modifying the ratio of volatile fatty acids produced in the rumen has been determined using the in vitro test described in Raun, U.S. Pat. No. 3,928,571 (Dec. 23, 1975), see the EXAMPLE therein. The data in Table 9, which follows, are reported as the ratio of VFA's produced in treated flasks to VFA's produced in untreated control flasks.

[22] = Acute toxicity, intraperitoneal; assay type: in vivo; settings: mice, intraperitoneally
Procedure: Antibiotic A47934, when given intraperitoneally to mice, has an acute toxicity greater than 300 mg./kg.

[23] = system: Bacteroides vulgatis 1211; test: MIC against anaerobic bacteria, agar dilution; assay type: cell-based; settings: strain 1211

## N[C@H]1C(=O)N[C@@H]2Cc3ccc(c(Cl)c3)Oc3cc4cc(c3O)Oc3ccc(cc3Cl)[C@@H](O)[C@@H]3NC(=O)[C@H](NC(=O)[C@@H]4NC(=O)[C@@H](NC2=O)c2cc(O)cc(c2)Oc2cc1ccc2OS(=O)(=O)O)c1cc(Cl)c(O)c(c1)-c1c(O)cc(O)cc1[C@@H](C(=O)O)NC3=O [Antibiotic A47934]
[1]; strain EPI1
  MIC: 0.25 mg/L (≈ 0.19 µM)
[1]; strain EPI2
  MIC: 2.0 mg/L (≈ 1.52 µM)
[2]
  MIC: 0.5 mg/L (≈ 0.381 µM)
[3]; 10 ppm in diet
  ADF % Im-crease: -3.2%
  ADF (average daily feed consumption): 1.83 lbs.
  ADG % Im-crease: 3.1%
  ADG (average daily gain): 1.00 lbs.
  F/G % Improvement: 7.6%
  F/G (ratio of feed consumption to gain): 1.82
[3]; 50 ppm in diet
  ADF % Im-crease: 4.7%
  ADF (average daily feed consumption): 1.98 lbs.
  ADG % Im-crease: 10.3%
  ADG (average daily gain): 1.07 lbs.
  F/G % Improvement: 6.1%
  F/G (ratio of feed consumption to gain): 1.85
[4]
  pH at which A47934 starts to precipitate: ~6.5 pH
  pH at which precipitation is complete: ~3 pH
S. aureus (3055)
  ED50: < 0.3 mg./kg. × 2
[5]; strain 1856/28
  MIC: > 128.0 mg/L
[5]; strain 2736
  MIC: 16.0 mg/L (≈ 12.2 µM)
[6]
  MIC: 1.0 mg/L (≈ 0.761 µM)
[7]
  MIC: 32.0 mg/L (≈ 24.4 µM)
Staphylococcus aureus
  MIC: 0.125 mg/L (≈ 0.0952 µM)
Staphylococcus aureus; strain S13E
  MIC: 0.125 mg/L (≈ 0.0952 µM)
Staphylococcus aureus; strain X1.1
  MIC: 0.06 mg/L (≈ 0.0457 µM)
Staphylococcus aureus; strain X400
  MIC: 0.25 mg/L (≈ 0.19 µM)
Salmonella typhi; strain 1335
  MIC: > 128 mg/L
Salmonella typhi; strain X514
  MIC: > 128 mg/L
[8]
  MIC: 32.0 mg/L (≈ 24.4 µM)
Klebsiella pneumoniae; strain KAE
  MIC: > 128.0 mg/L
Klebsiella pneumoniae; strain X26
  MIC: > 128.0 mg/L
[9]
  MIC: 0.25 mg/L (≈ 0.19 µM)
Peptococcus prevoti 1281
  MIC: 1.0 mg/L (≈ 0.761 µM)
Streptococcus Group D; strain 9960
  MIC: 0.5 mg/L (≈ 0.381 µM)
Streptococcus Group D; strain X66
  MIC: 0.5 mg/L (≈ 0.381 µM)
Bacteroides fragilis; strain 111
  MIC: 32.0 mg/L (≈ 24.4 µM)
Bacteroides fragilis; strain 1877
  MIC: 32.0 mg/L (≈ 24.4 µM)
Bacteroides fragilis; strain 1936B
  MIC: 32.0 mg/L (≈ 24.4 µM)
[10]; first time replicate
  Feed Efficiency % Impr.: 4.69%
  Feed Efficiency F/G: 1.707
  Weight Gain: 519 gm.
  Weight Gain % Impr.: 7.23%
[10]; second time replicate
  Feed Efficiency F/G: 1.746
  Weight Gain: 464 gm.
  Weight Gain % Impr.: 0%
[11]
  MIC: 0.25 mg/L (≈ 0.19 µM)
[12]
  MIC: 0.5 mg/L (≈ 0.381 µM)
S. pyogenes C203
  ED50: 3.38 mg./kg. × 2
[13]; strain 78
  MIC: ≤ 0.5 mg/L
[13]; strain 107B
  MIC: ≤ 0.5 mg/L
[13]; strain 111F
  MIC: ≤ 0.5 mg/L
[13]; strain 1153
  MIC: ≤ 0.5 mg/L
[13]; strain 2634
  MIC: ≤ 1.0 mg/L
[13]; strain 3424-5B
  MIC: ≤ 0.5 mg/L
[13]; strain 3816
  MIC: ≤ 0.5 mg/L
[13]; strain 3950D
  MIC: ≤ 0.5 mg/L
[13]; strain 6890
  MIC: ≤ 0.5 mg/L
[13]; strain 8484
  MIC: ≤ 0.5 mg/L
[13]; strain A-194
  MIC: ≤ 0.5 mg/L
[13]; strain A-195
  MIC: ≤ 0.5 mg/L
[13]; strain A-196
  MIC: ≤ 0.5 mg/L
[13]; strain A-279
  MIC: ≤ 1.0 mg/L
[13]; strain A-280
  MIC: ≤ 0.5 mg/L
[13]; strain A-281
  MIC: ≤ 0.5 mg/L
[13]; strain WAL-2112
  MIC: ≤ 0.5 mg/L
[13]; strain WAL-3657
  MIC: ≤ 0.5 mg/L
[13]; strain WAL-4268
  MIC: ≤ 0.5 mg/L
[14]
  MIC: 0.25 mg/L (≈ 0.19 µM)
[15]
  MIC: 0.06 mg/L (≈ 0.0457 µM)
[16]
  MIC: 1.0 mg/L (≈ 0.761 µM)
Haemophilus influenza; strain 76
  MIC: 4.0 mg/L (≈ 3.05 µM)
Haemophilus influenza; strain C.L.
  MIC: 2.0 mg/L (≈ 1.52 µM)
[17]
  MIC: 2.0 mg/L (≈ 1.52 µM)
[18]
  MIC: 0.5 mg/L (≈ 0.381 µM)
[19]
  MIC: 0.5 mg/L (≈ 0.381 µM)
S. pneumoniae (Park I)
  ED50: 1.77 mg./kg. × 2
[20]
  MIC: 1.0 mg/L (≈ 0.761 µM)
[21]; 1 mcg./ml.
  Acetate, ratio of VFA produced in treated flasks to untreated control flasks: 0.99
  Butyrate, ratio of VFA produced in treated flasks to untreated control flasks: 1.01
  Propionate, ratio of VFA produced in treated flasks to untreated control flasks: 1.11
[21]; 2 mcg./ml.
  Acetate, ratio of VFA produced in treated flasks to untreated control flasks: 1.09
  Butyrate, ratio of VFA produced in treated flasks to untreated control flasks: 1.03
  Propionate, ratio of VFA produced in treated flasks to untreated control flasks: 1.10
[21]; 4 mcg./ml.
  Acetate, ratio of VFA produced in treated flasks to untreated control flasks: 0.81
  Butyrate, ratio of VFA produced in treated flasks to untreated control flasks: 1.03
  Propionate, ratio of VFA produced in treated flasks to untreated control flasks: 1.32
[21]; 10 mcg./ml.
  Acetate, ratio of VFA produced in treated flasks to untreated control flasks: 0.95
  Butyrate, ratio of VFA produced in treated flasks to untreated control flasks: 1.00
  Propionate, ratio of VFA produced in treated flasks to untreated control flasks: 1.12
Escherichia coli; strain EC14
  MIC: > 128.0 mg/L
Escherichia coli; strain N10
  MIC: > 128.0 mg/L
Escherichia coli; strain TEM
  MIC: > 128.0 mg/L
[22]
  acute toxicity: greater than 300 mg./kg.
[23]
  MIC: 32.0 mg/L (≈ 24.4 µM)

## CC[C@H]1OC(=O)C[C@@H](O)[C@H](C)[C@@H](O[C@@H]2O[C@H](C)[C@@H](O[C@H]3C[C@@](C)(O)[C@@H](O)[C@H](C)O3)[C@H](N(C)C)[C@H]2O)[C@@H](CC=O)C[C@@H](C)C(=O)/C=C/C(C)=C/[C@@H]1CO[C@@H]1O[C@H](C)[C@@H](O)[C@@H](OC)[C@H]1OC [Tylan, tylosin, reference compound]
[3]; 110 ppm in diet
  ADF % Im-crease: 2.6%
  ADF (average daily feed consumption): 1.94 lbs.
  ADG % Im-crease: 4.1%
  ADG (average daily gain): 1.01 lbs.
  F/G % Improvement: 2.5%
  F/G (ratio of feed consumption to gain): 1.92
